Like-named read-outs stand apart in the source and are kept apart here.
Assays:
Plasmepsin V (PmV) = molecular target: T1, Plasmepsin V (PmV) (Plasmodium falciparum, UniProt Q8I6Z5); experiment: PmV inhibition, fluorimetric PExEl cleavage assay; assay type: biochemical
T1 construct: PmV was purified directly from parasites; made in house
Description: Saponin was added to culture to a final 0.05%; parasites were recovered via centrifugation at 4°C after 5 min of incubation on ice; parasite pellets were then washed twice in cold PBS and either immediately lysed or stored at -80°C until lysis. Parasites were lysed via three pulses of ultra-sonication of 10 sec duration, in PBS containing 0.5% Triton-X100 (TX-100). […] Quick washes of the resin were performed either in batches, or over columns, to remove unbound cellular material (four with ice-cold 0.5% TX-100 in PBS and a final one with cold PBS). Resin-bound PmV was stored in PBS at 4°C and used within 2–3 weeks, larger batches had Glycerol added to them, up to 10%, and were stored at -20°C for up to 5 months. […] Quality and purity of PmV batches were routinely confirmed by protein electrophoresis. Quantification of PmV was performed via densitometry analysis of stained protein SDS-PAGE gels relative to BSA standard curves.
PExEl cleavage activity was monitored by fluorimetric measurement of PExEl cleavage, as previously reported. […] PmV activity was performed at 37°C in 50 mM Tris-Maleate, pH 6.5, 50 mM NaCl, 0.05% TX-100, 2 mM DTT. Assays were routinely conducted in triplicate. Bead-bound enzyme was added to the reaction using ‘end-cut’ micropipette tips in order to facilitate sampling the suspension.
Inhibitory activities were measured in the presence of a substrate concentration of 3 μM by serial dilution of each compound in triplicates. […] Titration curves of the inhibitors were routinely composed of eleven points from 10 μM to 0.1 pM. PmV concentration was kept in the order of low picomolar (≤10 pM). […] Analysis of the half inhibitory activity (IC50) was performed by sigmoidal interpolation of the starting velocities of the hydrolytic reactions for each condition. Starting velocities were calculated on the initial linear range of the product progression curves. […] Data are presented with error bars indicating the standard deviation of three independent activity curves.

[1] = system: Plasmodium falciparum strain 3D7; experiment: Parasite growth inhibition by flow cytometry, strain 3D7; assay type: cell-based; conditions: asynchronous 3D7 cultures, about 4 days, 0.195–200 μM, flow cytometry
[2] = 3 μM HRPII-PExEl substrate, averages of not less than three inhibition curves, read-out: IC50
[3] = 3 μM substrate, tested up to 10 μM, read-out: IC50

T1 sequence (Q8I6Z5 whole entry): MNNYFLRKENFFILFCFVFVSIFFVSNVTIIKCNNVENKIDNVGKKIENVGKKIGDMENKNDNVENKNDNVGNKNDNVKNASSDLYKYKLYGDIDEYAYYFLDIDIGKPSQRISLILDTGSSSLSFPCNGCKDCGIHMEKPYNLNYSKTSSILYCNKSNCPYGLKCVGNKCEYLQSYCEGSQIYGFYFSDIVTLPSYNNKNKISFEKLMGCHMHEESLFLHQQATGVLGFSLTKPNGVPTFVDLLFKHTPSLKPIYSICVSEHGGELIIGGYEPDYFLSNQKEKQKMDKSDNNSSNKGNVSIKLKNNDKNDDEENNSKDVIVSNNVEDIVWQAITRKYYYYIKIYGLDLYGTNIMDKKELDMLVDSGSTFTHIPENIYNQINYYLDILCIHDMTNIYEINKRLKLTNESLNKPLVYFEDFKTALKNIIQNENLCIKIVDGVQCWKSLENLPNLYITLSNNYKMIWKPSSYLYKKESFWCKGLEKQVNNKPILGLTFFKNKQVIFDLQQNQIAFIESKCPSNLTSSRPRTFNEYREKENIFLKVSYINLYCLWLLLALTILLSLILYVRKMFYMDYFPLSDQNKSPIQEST

| SMILES | Ki (Plasmepsin V (PmV)) [nM] | IC50 (Plasmepsin V (PmV); [2]) [nM] | further results |
| --- | --- | --- | --- |
| CC(C)C[C@H](NC(=O)[C@H](CO)NC(=O)[C@@H](N)CCCNC(=N)N)C(O)CN[C@@H](Cc1ccc(O)cc1)C(=O)N[C@@H](CCC(=O)O)C(=O)N[C@@H](C)C(N)=O (mixture of isomers) [Compound 12] | 12.4 | 23.1 | IC50 increase compared to Compound 7a (Plasmepsin V (PmV)): 15 fold |
| CC(C)C[C@H](NC(=O)[C@@H](N)CCCCN)C(=O)N[C@@H](CC(C)C)C(O)CN[C@@H](C)C(=O)N[C@@H](CCC(N)=O)C(=O)N[C@@H](C)C(N)=O (mixture of isomers) [Compound 18] |  | > 10000 |  |
| CC(C)C[C@H](NC(=O)[C@@H](N)CCCNC(=N)N)C(=O)N[C@@H](CC(C)C)C(O)CN[C@@H](C)C(=O)N[C@@H](CCC(=O)O)C(N)=O (mixture of isomers) [Compound 22] | 0.22 | 0.42 |  |
| CC(C)C[C@H](NC(=O)[C@@H](N)CCCNC(=N)N)C(=O)N[C@@H](CC(C)C)C(O)CN[C@@H](C)C(=O)N[C@@H](CCC(N)=O)C(N)=O (mixture of isomers) [Compound 23] | 6.94 | 12.9 | IC50 increase compared to Compound 8a (Plasmepsin V (PmV)): 2.5 fold |
| CC(C)C[C@H](NC(=O)[C@@H](N)CCCNC(=N)N)C(=O)N[C@@H](CC(C)C)C(O)CN[C@@H](C)C(=O)NCC(=O)O (mixture of isomers) [Compound 25] | 8.03 | 15 |  |
| CC(C)C[C@H](NC(=O)[C@@H](N)Cc1c[nH]c2ccccc12)C(=O)N[C@@H](CC(C)C)C(O)CN[C@@H](C)C(=O)N[C@@H](CCC(=O)O)C(N)=O (mixture of isomers) [Compound 31] |  |  | IC50 (Plasmepsin V (PmV); [3]): > 10000 nM |
| CC(C)C[C@H](NC(=O)[C@@H](N)Cc1c[nH]c2ccccc12)C(=O)N[C@@H](CC(C)C)C(O)CN[C@@H](C)C(=O)N[C@@H](CCC(=O)O)C(N)=O (mixture of isomers) [LG51_Mix] |  |  | IC50 (Plasmepsin V (PmV); Activity, read-out: IC50): 39500 nM; IC50 (Plasmepsin V (PmV); Activity, read-out: pIC50 (converted)): 39800 nM |
| CC(C)C[C@H](NC(=O)[C@@H](N)CCCNC(=N)N)C(=O)N[C@@H](CC(C)C)[C@@H](O)CN[C@@H](Cc1ccc(O)cc1)C(=O)N[C@@H](CCC(=O)O)C(N)=O [Compound 2a] | 0.98 | 1.83 |  |
| CC(C)C[C@H](NC(=O)[C@@H](N)CCCNC(=N)N)C(=O)N[C@@H](CC(C)C)[C@H](O)CN[C@@H](Cc1ccc(O)cc1)C(=O)N[C@@H](CCC(=O)O)C(N)=O [Compound 2b] | 17.3 | 32.2 |  |
| CC(C)C[C@H](NC(=O)[C@@H](N)Cc1ccc(O)cc1)C(=O)N[C@@H](CC(C)C)[C@@H](O)CN[C@@H](C)C(=O)N[C@@H](CCC(=O)O)C(=O)N[C@@H](C)C(N)=O [Compound 3a] | 2510 | 4680 |  |
| CC(C)C[C@H](NC(=O)[C@@H](N)Cc1ccc(O)cc1)C(=O)N[C@@H](CC(C)C)[C@H](O)CN[C@@H](C)C(=O)N[C@@H](CCC(=O)O)C(=O)N[C@@H](C)C(N)=O [Compound 3b] | 6570 | ~12200 |  |
| CC(C)C[C@H](NC(=O)[C@@H](N)CCCNC(=N)N)C(=O)N[C@@H](CC(C)C)[C@@H](O)CN[C@@H](Cc1ccc(O)cc1)C(=O)N[C@@H](CCC(=O)O)C(=O)N[C@@H](C)C(N)=O [Compound 7a] | 0.74 | 1.38 | IC50 increase compared to Compound 1 (Plasmepsin V (PmV)): 4–7 fold |
| CC(C)C[C@H](NC(=O)[C@@H](N)CCCNC(=N)N)C(=O)N[C@@H](CC(C)C)[C@H](O)CN[C@@H](C)C(=O)N[C@@H](CCC(N)=O)C(=O)N[C@@H](C)C(N)=O [Compound 8b] |  |  | LD50 growth inhibition [1]: ~ 120.5 μM |
| CC(C)C[C@H](NC(=O)[C@@H](N)CCCNC(=N)N)C(=O)N[C@@H](CC(C)C)[C@@H](O)CN[C@@H](Cc1ccc(O)cc1)C(=O)N[C@@H](CCC(N)=O)C(=O)N[C@@H](C)C(N)=O [Compound 9a] | 6.8 | 12.7 | IC50 increase compared to Compound 7a (Plasmepsin V (PmV)): ~ 9 fold; IC50 increase compared to Compound 8a (Plasmepsin V (PmV)): 4–7 fold |
| CC(C)C[C@H](NC(=O)[C@H](C)NC(=O)[C@@H](N)CCCNC(=N)N)[C@@H](O)CN[C@@H](Cc1ccc(O)cc1)C(=O)N[C@@H](CCC(=O)O)C(=O)N[C@@H](C)C(N)=O [Compound 11a] | 3.3 | 6.14 | IC50 increase compared to Compound 7a (Plasmepsin V (PmV)): 5 fold |
| CC(C)C[C@H](NC(=O)[C@@H](N)CCCCN)C(=O)N[C@@H](CC(C)C)[C@@H](O)CN[C@@H](C)C(=O)N[C@@H](CCC(=O)O)C(=O)N[C@@H](C)C(N)=O [Compound 13a] | 412 | 767 | IC50 (Plasmepsin V (PmV); [3]): 770 nM |
| CC(C)C[C@H](NC(=O)[C@@H](N)Cc1c[nH]cn1)C(=O)N[C@@H](CC(C)C)[C@@H](O)CN[C@@H](C)C(=O)N[C@@H](CCC(=O)O)C(=O)N[C@@H](C)C(N)=O [Compound 14a] | 910 | 1690 |  |
